Assays:
solubility in water = type: physicochemical
[1] = PK test of compound F2 and its solid dispersion, oral, fasted male Wistar rats; type: in vivo; details: Wistar (Crlj:WI), rat, compound F2 in plasma, 10 mg/kg (as compound F2) p.o., n=3
Description: Fasted male rats (8 weeks old, Wistar (Crlj:WI), Charles River Laboratories Japan, Inc.) were orally administered a crystalline form of the compound F2 suspended in a 1% methylcellulose aqueous solution or a solid dispersion comprising the compound F2 suspended in water for injection. The dosage of the compound F2 in each group was 10 mg/kg (n=3 in each group). Blood samples were collected in a time-dependent manner at 0.5, 1, 2, 4, 6, 8, and 24 hours after oral administration. The concentration of the compound F2 in the obtained plasma was measured by LC-MS/MS (MS/MS: API4000, SCIEX, LC: LC-20AD series, Shimadzu Corporation). Tmax, Cmax, and AUClast were calculated from the plasma concentration transition (Table 5).

[2] = PK test, solid dispersions E and B of compound F48, single oral dose, fasted male Wistar rats; type: in vivo; details: Wistar (Crlj:WI), rat, compound F48 in plasma, 10 mg/kg (as compound F48) p.o. once, n=3
Description: Solid dispersions E and B were prepared using a rotary evaporator according to the following method. The compound F48 was dissolved in THF to result in 2.5 mg/mL. By the same procedure as above, each polymer was prepared to result in 25 mg/mL. Next, the compound F48 solution was added to the polymer solution with stirring such that the weight ratio between the compound F48 and the carrier was 1:25. The resulting mixture was transferred to a recovery flask, and the organic solvent was then removed using a rotary evaporator (Yamato Scientific Co., Ltd., distillation apparatus). The recovery flask was transferred to a desiccator and dried under reduced pressure using a vacuum pump for approximately 16 hours, thereby obtaining solid dispersions E and B. […]
Blood samples were collected in a time-dependent manner before oral administration and at 0.5, 1, 3, 5, 8, and 24 hours after oral administration. The concentration of the compound F48 in the obtained plasma was measured by HPLC (Hitachi High-Technologies Corporation). The time to reach the maximum plasma concentration (Tmax), the maximum plasma concentration (Cmax), and the area under the plasma concentration-time curve (AUClast) were calculated from the plasma concentration transition (Table 2).

SMILES | solubility in water (solubility in water) | AUC(0-t) [1] [ng·h/mL] | Cmax [1] [ng/mL] | Tmax [1] [h] | Cmax [2] [ng/mL]
O=C1CC(=O)N(c2ccc(NC(=O)c3ccccc3C(F)(F)F)cc2)c2ccc3ccccc3c2N1 [Compound F2, 5-[4-[2-(trifluoromethyl)benzoyl]aminophenyl]-1H-naphtho [1,2-b][1,4]diazepine-2,4 (3H,5H)-dione] | poorly soluble in water | 5710 ± 520 | 386 ± 56 | 4 | –
O=C1CC(=O)N(c2ccc(NC(=O)c3ccccc3I)cc2)c2ccc3ccccc3c2N1 [Compound F48, 5-[4-(2-iodobenzoylamino)phenyl]-1H-naphtho [1,2-b][1,4]diazepine-2,4 (3H,5H)-dione] | poorly soluble in water | – | – | – | –
CCc1ccccc1C(=O)Nc1ccc(N2C(=O)CC(=O)Nc3c2ccc2ccccc32)cc1 [Compound F57, 5-[4-[(2-ethylbenzoyl)amino]phenyl]-1H-naphtho [1,2-b][1,4]diazepine-2,4 (3H,5H)-dione] | poorly soluble in water | – | – | – | –
O=C1CC(=O)N(c2ccc(NC(=O)c3ccccc3I)cc2)c2ccc3ccccc3c2N1 [Control, 5-[4-(2-iodobenzoylamino)phenyl]-1H-naphtho [1,2-b][1,4]diazepine-2,4 (3H,5H)-dione] | – | – | – | – | < 25

From US20260207620A1, “SOLID DISPERSION OF COMPOUND HAVING P2X4 RECEPTOR ANTAGONISTIC ACTION” (NIPPON CHEMIPHAR CO., LTD., priority 2023, published 2026)
